The structures appear in SMILES notation.

Assay [1] concerns the target mutant G2019S LRRK2 (Homo sapiens (Human), UniProt Q5S007, G2019S). The assay is described as follows: LRRK2 Lantha Screen kinase assay, mutant enzyme. The class given is biochemical. To be noted: geometric mean of 2-5 determinations unless otherwise indicated (a: >=6 determinations; b: single determination).
In assay [2] the target is GST-tagged truncated LRRK2 (Homo sapiens (Human), UniProt Q5S007). Put plainly: LRRK2 Lantha Screen kinase assay. The class given is biochemical. To be noted: geometric mean of 2-5 determinations unless otherwise indicated (a: >=6 determinations; b: single determination); read-out: LRRK2 WT IC50.
Chain of GST-tagged truncated LRRK2 (Q5S007 970-2527): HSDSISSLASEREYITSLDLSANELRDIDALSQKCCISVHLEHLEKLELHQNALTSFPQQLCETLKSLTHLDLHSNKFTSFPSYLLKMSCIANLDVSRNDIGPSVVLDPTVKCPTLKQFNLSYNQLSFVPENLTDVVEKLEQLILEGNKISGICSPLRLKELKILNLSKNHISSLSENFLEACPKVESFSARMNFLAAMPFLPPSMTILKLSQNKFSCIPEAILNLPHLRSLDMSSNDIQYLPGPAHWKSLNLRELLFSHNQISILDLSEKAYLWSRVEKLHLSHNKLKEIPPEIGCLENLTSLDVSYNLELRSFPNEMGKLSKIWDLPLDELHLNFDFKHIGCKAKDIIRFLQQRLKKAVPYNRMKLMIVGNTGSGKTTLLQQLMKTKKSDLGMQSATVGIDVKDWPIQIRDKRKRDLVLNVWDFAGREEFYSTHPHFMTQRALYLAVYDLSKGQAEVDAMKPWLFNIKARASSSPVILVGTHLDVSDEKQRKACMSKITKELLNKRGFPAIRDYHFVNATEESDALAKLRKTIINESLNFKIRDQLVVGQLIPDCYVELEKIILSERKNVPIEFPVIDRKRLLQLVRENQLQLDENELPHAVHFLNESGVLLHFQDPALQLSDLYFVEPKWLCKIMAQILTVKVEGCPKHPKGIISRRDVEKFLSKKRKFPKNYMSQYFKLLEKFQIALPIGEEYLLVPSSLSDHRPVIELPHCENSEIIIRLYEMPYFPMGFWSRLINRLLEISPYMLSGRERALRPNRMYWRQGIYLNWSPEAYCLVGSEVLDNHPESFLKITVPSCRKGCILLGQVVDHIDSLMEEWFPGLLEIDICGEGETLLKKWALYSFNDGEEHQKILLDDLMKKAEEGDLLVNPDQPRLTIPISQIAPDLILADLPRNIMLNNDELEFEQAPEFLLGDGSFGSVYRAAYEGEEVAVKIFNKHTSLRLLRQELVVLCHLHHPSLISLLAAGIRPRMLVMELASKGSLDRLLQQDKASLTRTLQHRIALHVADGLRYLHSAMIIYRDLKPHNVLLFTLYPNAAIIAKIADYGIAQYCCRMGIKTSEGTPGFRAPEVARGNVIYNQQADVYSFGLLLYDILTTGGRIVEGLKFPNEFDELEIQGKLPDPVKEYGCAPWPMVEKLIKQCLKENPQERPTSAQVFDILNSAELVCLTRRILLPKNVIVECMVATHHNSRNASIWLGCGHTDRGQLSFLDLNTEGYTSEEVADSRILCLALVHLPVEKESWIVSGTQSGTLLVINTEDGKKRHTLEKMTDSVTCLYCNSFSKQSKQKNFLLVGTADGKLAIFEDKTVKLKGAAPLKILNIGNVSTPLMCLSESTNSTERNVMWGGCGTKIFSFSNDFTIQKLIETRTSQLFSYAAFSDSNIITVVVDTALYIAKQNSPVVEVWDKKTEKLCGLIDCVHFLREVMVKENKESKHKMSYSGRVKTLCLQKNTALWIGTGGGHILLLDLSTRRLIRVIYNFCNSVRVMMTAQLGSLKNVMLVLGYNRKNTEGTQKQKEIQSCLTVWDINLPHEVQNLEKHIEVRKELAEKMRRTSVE

Chain of mutant G2019S LRRK2 (Q5S007 970-2527 G2019S): as the sequence (Q5S007 970-2527) above, with G1050S counted along it

As usually defined, the IC50 is the concentration at which inhibition is half-maximal. Turning to `N#Cc1cccc(-c2c[nH]c3ncnc(N4CCOC(c5ccncn5)C4)c23)c1` (centres unmarked) [Example 141, 3-{4-[2-(pyrimidin-4-yl)morpholin-4-yl]-7H-pyrrolo[2,3-d]pyrimidin-5-yl}benzonitrile], the IC50 in assay [1] is 0.193 µM; in assay [2], 0.079 µM.
On the same counts, the results for `N#Cc1cccc(-c2c[nH]c3ncnc(N4CCOC(c5nc(C6CC6)no5)C4)c23)c1` (centres unmarked) [Example 142, 3-{4-[2-(3-cyclopropyl-1,2,4-oxadiazol-5-yl)morpholin-4-yl]-7H-pyrrolo[2,3-d]pyrimidin-5-yl}benzonitrile] are 0.084 µM and 0.03 µM.
For the compound `CN(C)CC1CN(c2ncnc3[nH]cc(-c4cccc(C#N)c4)c23)CCO1` (centres unmarked) [Example 143, 3-(4-{2-[(dimethylamino)methyl]morpholin-4-yl}-7H-pyrrolo[2,3-d]pyrimidin-5-yl)benzonitrile], the IC50 is 0.11 µM in assay [1] and 0.045 µM in assay [2].
On the same counts, the results for `N#Cc1cccc(-c2c[nH]c3ncnc(Nc4cn[nH]c4)c23)c1` [Example 144, 3-[4-(1H-pyrazol-4-ylamino)-7H-pyrrolo[2,3-d]pyrimidin-5-yl]benzonitrile] are 0.036 µM and 0.069 µM.
As to `Cc1nc(CC2CN(c3ncnc4[nH]cc(-c5cccc(C#N)c5)c34)CCO2)no1` (centres unmarked) [Example 145, 3-(4-{2-[(5-methyl-1,2,4-oxadiazol-3-yl)methyl]morpholin-4-yl}-7H-pyrrolo[2,3-d]pyrimidin-5-yl)benzonitrile], the IC50 in assay [1] was found to be 0.155 µM; in assay [2], 0.055 µM.
With `Cc1nnc(C2CCCN(c3ncnc4[nH]cc(-c5cccc(C#N)c5)c34)C2)o1` (centres unmarked) [Example 146, 3-{4-[3-(5-methyl-1,3,4-oxadiazol-2-yl)piperidin-1-yl]-7H-pyrrolo[2,3-d]pyrimidin-5-yl}benzonitrile], the IC50 in assay [1] was 0.217 µM; in assay [2], 0.096 µM.
On the same counts, the results for `COc1cc(C#N)cc(-c2c[nH]c3ncnc(N(C)C)c23)c1` [Example 147, 3-[4-(dimethylamino)-7H-pyrrolo[2,3-d]pyrimidin-5-yl]-5-methoxybenzonitrile] are 0.093 µM and 0.037 µM.
Take `CCn1cc(-c2c[nH]c3ncnc(N4CCOCC4)c23)cn1` [Example 148, 5-(1-ethyl-1H-pyrazol-4-yl)-4-(morpholin-4-yl)-7H-pyrrolo[2,3-d]pyrimidine]: the IC50 in assay [1] was 0.092 µM; in assay [2], 0.077 µM.
As to `Cc1cncc(-c2c[nH]c3ncnc(N4CCOCC4)c23)c1` [Example 149, 5-(5-methylpyridin-3-yl)-4-(morpholin-4-yl)-7H-pyrrolo[2,3-d]pyrimidine], the IC50 in assay [1] was determined as 0.03 µM; in assay [2], 0.018 µM.
In the case of `Clc1cncc(-c2c[nH]c3ncnc(N4CCOCC4)c23)c1` [Example 150, 5-(5-chloropyridin-3-yl)-4-(morpholin-4-yl)-7H-pyrrolo[2,3-d]pyrimidine], the IC50 in assay [1] turned out to be 0.036 µM; in assay [2], 0.028 µM.
The matching figures for `COc1cncc(-c2c[nH]c3ncnc(N4CCOCC4)c23)n1` [Example 151, 5-(6-methoxypyrazin-2-yl)-4-(morpholin-4-yl)-7H-pyrrolo[2,3-d]pyrimidine]: 0.037 µM and 0.032 µM.
Take `Cc1nn(C)cc1-c1c[nH]c2ncnc(N3CCOCC3)c12` [Example 152, 5-(1,3-dimethyl-1H-pyrazol-4-yl)-4-(morpholin-4-yl)-7H-pyrrolo[2,3-d]pyrimidine]: the IC50 came out at 0.091 µM in assay [1] and 0.06 µM in assay [2].
Take `C[C@H]1COCCN1c1ncnc2[nH]cc(-c3cccc(C#N)c3)c12` [Example 153, 3-{4-[(3S)-3-methylmorpholin-4-yl]-7H-pyrrolo[2,3-d]pyrimidin-5-yl}benzonitrile]: the IC50 in assay [1] amounted to 0.165 µM; in assay [2] it was 0.044 µM.
On the same counts, the results for `Cc1nc(N2CCOCC2)c2c(-c3cccc(C#N)c3F)c[nH]c2n1` [Example 154, 2-fluoro-3-[2-methyl-4-(morpholin-4-yl)-7H-pyrrolo[2,3-d]pyrimidin-5-yl]benzonitrile] are 0.365 µM and 0.03 µM.
On to `N#Cc1cccc(-c2c[nH]c3ncnc(N4CCC[C@@H](O)C4)c23)c1` [Example 155, 3-{4-[(3R)-3-hydroxypiperidin-1-yl]-7H-pyrrolo[2,3-d]pyrimidin-5-yl}benzonitrile], for which the results for the IC50 in assay [1] and in assay [2] were 0.037 µM and 0.008 µM, respectively.
As for `OC1CCCN(c2ncnc3[nH]cc(-c4cccc(F)c4)c23)C1` (centres unmarked) [Example 156, 1-[5-(3-fluorophenyl)-7H-pyrrolo[2,3-d]pyrimidin-4-yl]piperidin-3-ol], the IC50 in assay [1] is 0.086 µM; in assay [2], 0.057 µM.
The matching figures for `COc1ccc(F)cc1-c1c[nH]c2ncnc(N3CCOC(c4noc(C)n4)C3)c12` (centres unmarked) [Example 157, 5-(5-fluoro-2-methoxyphenyl)-4-[2-(5-methyl-1,2,4-oxadiazol-3-yl)morpholin-4-yl]-7H-pyrrolo[2,3-d]pyrimidine]: 0.046 µM and 0.044 µM.
As to `N#Cc1cccc(-c2c[nH]c3ncnc(N4CCC(F)CC4)c23)c1F` [Example 158, 2-fluoro-3-[4-(4-fluoropiperidin-1-yl)-7H-pyrrolo[2,3-d]pyrimidin-5-yl]benzonitrile], the values for the IC50 in assay [1] and in assay [2] were 0.086 µM and 0.018 µM, respectively.
For `COc1ccccc1-c1c[nH]c2ncnc(N3CCC(F)CC3)c12` [Example 159, 4-(4-fluoropiperidin-1-yl)-5-(2-methoxyphenyl)-7H-pyrrolo[2,3-d]pyrimidine], the results for the IC50 in assay [1] and in assay [2] were 0.074 µM and 0.067 µM, respectively.
The matching figures for `COc1cc(F)cc(-c2c[nH]c3ncnc(N4CCC(F)CC4)c23)c1` [Example 160, 5-(3-fluoro-5-methoxyphenyl)-4-(4-fluoropiperidin-1-yl)-7H-pyrrolo[2,3-d]pyrimidine]: 0.096 µM and 0.084 µM.
As to `Cc1cncc(-c2c[nH]c3ncnc(N4CCCC(O)C4)c23)c1` (centres unmarked) [Example 162, 1-[5-(5-methylpyridin-3-yl)-7H-pyrrolo[2,3-d]pyrimidin-4-yl]piperidin-3-ol], the half-maximal inhibitory concentration (IC50) in assay [1] came out at 0.067 µM; in assay [2], 0.036 µM.
With `COc1ccc(F)cc1-c1c[nH]c2ncnc(N3CCC(F)CC3)c12` [Example 163, 5-(5-fluoro-2-methoxyphenyl)-4-(4-fluoropiperidin-1-yl)-7H-pyrrolo[2,3-d]pyrimidine], the results for the half-maximal inhibitory concentration (IC50) in assay [1] and in assay [2] were 0.029 µM and 0.025 µM, respectively.
On the same counts, the results for `COc1cc(F)cc(-c2c[nH]c3ncnc(N4CCCC(O)C4)c23)c1` (centres unmarked) [Example 164, 1-[5-(3-fluoro-5-methoxyphenyl)-7H-pyrrolo[2,3-d]pyrimidin-4-yl]piperidin-3-ol] are 0.038 µM and 0.029 µM.
The matching figures for `COc1ccccc1-c1c[nH]c2ncnc(N3CCCC(O)C3)c12` (centres unmarked) [Example 165, 1-[5-(2-methoxyphenyl)-7H-pyrrolo[2,3-d]pyrimidin-4-yl]piperidin-3-ol]: 0.062 µM and 0.058 µM.
Take `Cc1noc(C2CN(c3ncnc4[nH]cc(-c5cccc(C#N)c5F)c34)CCO2)n1` (centres unmarked) [Example 166, 2-fluoro-3-{4-[2-(3-methyl-1,2,4-oxadiazol-5-yl)morpholin-4-yl]-7H-pyrrolo[2,3-d]pyrimidin-5-yl}benzonitrile]: the IC50 was 0.272 µM in assay [1] and 0.038 µM in assay [2].

The record behind these values is patent US9156845B2, “4-(substituted amino)-7H-pyrrolo[2,3-d] pyrimidines as LRRK2 inhibitors” (Pfizer Inc., priority 2012, dated 2015).
